Experiments:
[1] = target: T1, c-kit (Homo sapiens, UniProt P10721); assay: Inhibitory activity against c-kit autophosphorylation (MO7e cells, h-SCF); type: cell-based; conditions: for IC50: MO7e cells, h-SCF 50 ng/ml, read-out: c-kit IC50
T1 construct: MO7e (human megakaryocytic leukemia cell line) which had been arrested for 20 hr; endogenous in cells; host or cells: MO7e human megakaryocytic leukemia cell line
How it was run: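 Growth-arrested (20 hr) MO7e; cpd in DMSO, 1 hr; h-SCF 50 ng/ml, 5 min; lyse. ELISA: anti-pTyr (PY-20) capture, anti-c-kit 1° Ab, HRP anti-rabbit 2° Ab, A450.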

[2] = target: T2, PDGF-Ra (Homo sapiens, UniProt P16234); assay: Inhibitory activity against PDGF-Ra phosphorylation by PDGF-AA stimulation using G292; type: cell-based; conditions: for IC50: Pharmacological Test Example 1, > means inhibition at indicated concentration not more than 50%, < and << not less than 50%, read-out: PDGF (E) IC50; for inhibition at 0.1 µM: G292, figure in parentheses in >100( ), at 100 nM, read-out: PDGF (E) inhibition (%) at 100 nM
T2 construct: host or cells: G-292 human osteosarcoma cells
How it was run: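 Cells seeded in low-serum medium are exposed to test compound for one hour, then PDGF-AA (50 ng/ml) triggers receptor phosphorylation for 5 min at 37 °C. Phospho-PDGF-Ra in solubilized cells is quantified by anti-phosphotyrosine capture ELISA at 450 nm.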

T1 sequence (P10721 26-976): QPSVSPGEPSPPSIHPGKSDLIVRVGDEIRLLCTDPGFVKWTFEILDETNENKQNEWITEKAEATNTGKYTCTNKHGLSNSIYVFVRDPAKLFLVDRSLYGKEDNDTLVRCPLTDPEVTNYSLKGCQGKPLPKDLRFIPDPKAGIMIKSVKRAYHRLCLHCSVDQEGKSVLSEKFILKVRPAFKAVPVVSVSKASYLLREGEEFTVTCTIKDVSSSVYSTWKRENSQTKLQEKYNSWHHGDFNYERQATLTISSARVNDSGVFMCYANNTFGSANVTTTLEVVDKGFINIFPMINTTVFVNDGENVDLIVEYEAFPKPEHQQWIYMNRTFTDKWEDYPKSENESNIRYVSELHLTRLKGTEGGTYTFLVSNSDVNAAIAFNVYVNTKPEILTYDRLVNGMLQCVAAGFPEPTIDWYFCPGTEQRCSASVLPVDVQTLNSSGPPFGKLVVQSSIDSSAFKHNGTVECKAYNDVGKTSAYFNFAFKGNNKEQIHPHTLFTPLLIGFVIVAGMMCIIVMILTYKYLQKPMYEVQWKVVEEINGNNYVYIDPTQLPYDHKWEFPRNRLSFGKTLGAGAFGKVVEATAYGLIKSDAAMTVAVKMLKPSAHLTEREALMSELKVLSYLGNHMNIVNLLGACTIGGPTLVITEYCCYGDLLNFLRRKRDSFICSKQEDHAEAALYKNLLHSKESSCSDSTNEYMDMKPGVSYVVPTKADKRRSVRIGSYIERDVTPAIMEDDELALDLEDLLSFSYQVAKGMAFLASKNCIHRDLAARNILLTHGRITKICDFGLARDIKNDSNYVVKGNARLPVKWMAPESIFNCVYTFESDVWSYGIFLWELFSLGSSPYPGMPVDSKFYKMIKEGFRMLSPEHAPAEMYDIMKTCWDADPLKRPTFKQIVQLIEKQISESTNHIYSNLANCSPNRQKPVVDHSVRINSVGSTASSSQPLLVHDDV
T2 sequence (P16234 24-1089): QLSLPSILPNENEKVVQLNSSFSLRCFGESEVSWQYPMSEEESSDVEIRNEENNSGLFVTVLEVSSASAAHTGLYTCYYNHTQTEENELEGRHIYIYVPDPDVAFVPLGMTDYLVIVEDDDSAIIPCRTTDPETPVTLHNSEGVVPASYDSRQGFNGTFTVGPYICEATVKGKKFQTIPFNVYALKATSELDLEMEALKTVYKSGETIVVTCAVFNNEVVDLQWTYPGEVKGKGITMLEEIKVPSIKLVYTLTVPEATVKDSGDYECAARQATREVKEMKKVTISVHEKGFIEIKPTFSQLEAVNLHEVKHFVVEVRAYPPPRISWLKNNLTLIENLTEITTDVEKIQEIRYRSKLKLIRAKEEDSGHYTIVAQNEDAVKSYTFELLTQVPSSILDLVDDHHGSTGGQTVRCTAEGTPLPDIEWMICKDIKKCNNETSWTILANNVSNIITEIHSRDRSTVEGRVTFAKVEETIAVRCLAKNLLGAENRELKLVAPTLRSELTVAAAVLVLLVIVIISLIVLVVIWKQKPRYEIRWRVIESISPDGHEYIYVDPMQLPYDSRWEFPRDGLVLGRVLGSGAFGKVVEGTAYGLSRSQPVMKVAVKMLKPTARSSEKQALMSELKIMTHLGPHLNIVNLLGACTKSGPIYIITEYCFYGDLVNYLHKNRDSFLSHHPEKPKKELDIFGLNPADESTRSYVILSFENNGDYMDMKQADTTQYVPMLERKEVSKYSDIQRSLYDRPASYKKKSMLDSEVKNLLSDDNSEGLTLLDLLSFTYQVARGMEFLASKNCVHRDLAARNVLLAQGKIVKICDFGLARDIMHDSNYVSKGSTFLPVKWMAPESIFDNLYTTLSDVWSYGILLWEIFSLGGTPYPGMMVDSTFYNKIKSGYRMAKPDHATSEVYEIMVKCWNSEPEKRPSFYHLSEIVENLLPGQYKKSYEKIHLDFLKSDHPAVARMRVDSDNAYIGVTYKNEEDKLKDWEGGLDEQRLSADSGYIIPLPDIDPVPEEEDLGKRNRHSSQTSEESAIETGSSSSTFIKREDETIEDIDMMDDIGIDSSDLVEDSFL

Row | SMILES | IC50 [1] [nM] | IC50 [2] [nM] | inhibition at 1 µM ([1]; Mo7e, figure in parentheses in −( ), at 1000 nM) [%] | inhibition at 0.1 µM [2] [%]
1 | COc1cc2nccc(Oc3ccc(NC(=O)Oc4ccc(C(C)(C)C)cc4)cc3)c2cc1OC [Example 259, 4-(Tert-butyl)phenyl N-{4-[(6,7-dimethoxy-4-quinolyl)oxy]phenyl}carbamate] | 184 | 34 |  | 
2 | COc1cc2nccc(Oc3ccc(NC(=O)Oc4ccccc4OC)cc3)c2cc1OC [Example 260, 2-Methoxyphenyl N-{4-[(6,7-dimethoxy-4-quinolyl)oxy]phenyl}carbamate] | 180 | 6 |  | 
3 | CCCCCCOC(=O)Nc1ccc(Oc2ccnc3cc(OC)c(OC)cc23)c(C)c1C [Example 261, Hexyl N-{4-[(6,7-Dimethoxy-4-quinolyl)oxy]-2,3-dimethylphenyl}carbamate] | 44 | 4 |  | 
4 | CCCCCCOC(=O)Nc1cc(C)c(Oc2ccnc3cc(OC)c(OC)cc23)cc1C [Example 262, Hexyl N-{4-[(6,7-dimethoxy-4-quinolyl)oxy]-2,5-dimethylphenyl}carbamate] | 83 | 7 |  | 
5 | CCC(OC(=O)Nc1ccc(Oc2ccnc3cc(OC)c(OC)cc23)cc1)c1ccccc1 (stereo not shown) [Example 263, 1-Phenylpropyl N-{4-[(6,7-dimethoxy-4-quinolyl)oxy]phenyl}carbamate] | 329 | 10 |  | 
6 | CCC(OC(=O)Nc1cc(C)c(Oc2ccnc3cc(OC)c(OC)cc23)cc1C)c1ccccc1 (stereo not shown) [Example 264, 1-Phenylpropyl N-{4-[(6,7-dimethoxy-4-quinolyl)oxy]-2,5-dimethylphenyl}carbamate] | 486 | 42 |  | 
7 | CCC(OC(=O)Nc1ccc(Oc2ccnc3cc(OC)c(OC)cc23)c(C)c1C)c1ccccc1 (stereo not shown) [Example 265, 1-Phenylpropyl N-{4-[(6,7-dimethoxy-4-quinolyl)oxy]-2,3-dimethylphenyl}carbamate] | 122 | 35 |  | 
8 | COc1cc2nccc(Oc3ccc(NC(=O)Oc4c(C)cccc4C)cc3)c2cc1OC [Example 269, 2,6-Dimethylphenyl N-{4-[(6,7-dimethoxy-4-quinolyl)oxy]phenyl}carbamate] |  | 17 | 48 | 
9 | COc1cc2nccc(Oc3cc(C)c(NC(=O)Oc4c(C)cccc4C)cc3C)c2cc1OC [Example 270, 2,6-Dimethylphenyl N-{4-[(6,7-dimethoxy-4-quinolyl)oxy]-2,5-dimethylphenyl}carbamate] | 471 | 65 |  | 
10 | COc1cc2nccc(Oc3ccc(NC(=O)Oc4c(C)cccc4C)c(C)c3C)c2cc1OC [Example 271, 2,6-Dimethylphenyl N-(4-[(6,7-dimethoxy-4-quinolyl)oxy]-2,3-dimethylphenyl}carbamate] | 130 | 22 |  | 
11 | CCCCc1ccc(OC(=O)Nc2cc(C)c(Oc3ccnc4cc(OC)c(OC)cc34)cc2C)cc1 [Example 272, 4-Butylphenyl N-{4-[(6,7-dimethoxy-4-quinolyl)oxy]-2,5-dimethylphenyl}carbamate] | 297 | 61 |  | 
12 | CCCCc1ccc(OC(=O)Nc2ccc(Oc3ccnc4cc(OC)c(OC)cc34)c(C)c2C)cc1 [Example 273, 4-Butylphenyl N-{4-[(6,7-dimethoxy-4-quinolyl)oxy]-2,3-dimethylphenyl}carbamate] | 107 | 23 |  | 
13 | COc1cc2nccc(Oc3cc(C)c(NC(=O)Oc4ccc(C(C)(C)C)cc4)cc3C)c2cc1OC [Example 274, 4-(Tert-butyl)phenyl N-{4-[(6,7-dimethoxy-4-quinolyl)oxy]-2,5-dimethylphenyl}carbamate] | 399 | 25 |  | 
14 | COc1cc2nccc(Oc3ccc(NC(=O)Oc4ccc(C(C)(C)C)cc4)c(C)c3C)c2cc1OC [Example 275, 4-(Tert-butyl)phenyl N-{4-[(6,7-dimethoxy-4-quinolyl)oxy]-2,3-dimethylphenyl}carbamate] | 103 | 16 |  | 
15 | CCCC(CC)OC(=O)Nc1cc(C)c(Oc2ccnc3cc(OC)c(OC)cc23)cc1C (stereo not shown) [Example 276, 1-Ethylbutyl N-{4-[(6,7-dimethoxy-4-quinolyl)oxy]-2,5-dimethylphenyl}carbamate] | 413 | 16 |  | 
16 | CCCC(CC)OC(=O)Nc1ccc(Oc2ccnc3cc(OC)c(OC)cc23)c(C)c1C (stereo not shown) [Example 277, 1-Ethylbutyl N-{4-[(6,7-dimethoxy-4-quinolyl)oxy]-2,3-dimethylphenyl}carbamate] | 53 | 10 |  | 
17 | COc1cc2nccc(Oc3cc(C)c(NC(=O)Oc4ccccc4OC)cc3C)c2cc1OC [Example 278, 2-Methoxyphenyl N-{4-[(6,7-dimethoxy-4-quinolyl)oxy]-2,5-dimethylphenyl}carbamate] | 289 | 53 |  | 

Row | SMILES | IC50 [1] [nM] | IC50 [2] [nM] | inhibition at 1 µM ([1]; Mo7e, figure in parentheses in −( ), at 1000 nM) [%] | inhibition at 0.1 µM [2] [%]
18 | COc1cc2nccc(Oc3ccc(NC(=O)Oc4ccccc4OC)c(C)c3C)c2cc1OC [Example 279, 2-Methoxyphenyl N-{4-[(6,7-dimethoxy-4-quinolyl)oxy]-2,3-dimethylphenyl}carbamate] | < 30 | < 10 |  | 
19 | COc1cc2nccc(Oc3ccc(NC(=O)Oc4c(OC)cccc4OC)cc3)c2cc1OC [Example 280, 2,6-Dimethoxyphenyl N-{4-[(6,7-dimethoxy-4-quinolyl)oxy]phenyl}carbamate] | 370 | < 10 |  | 
20 | COc1cc2nccc(Oc3cc(C)c(NC(=O)Oc4c(OC)cccc4OC)cc3C)c2cc1OC [Example 281, 2,6-Dimethoxyphenyl N-{4-[(6,7-dimethoxy-4-quinolyl)oxy]-2,5-dimethylphenyl}carbamate] | 268 | > 100 |  | 49
21 | COc1cc2nccc(Oc3ccc(NC(=O)Oc4c(OC)cccc4OC)c(C)c3C)c2cc1OC [Example 282, 2,6-Dimethoxyphenyl N-{4-[(6,7-dimethoxy-4-quinolyl)oxy]-2,3-dimethylphenyl}carbamate] | 48 | 34 |  | 
22 | COc1cc2nccc(Oc3ccc(NC(=O)OCC4CCCCC4)cc3)c2cc1OC [Example 283, Cyclohexylmethyl N-{4-[(6,7-dimethoxy-4-quinolyl)oxy]phenyl}carbamate] | 121 | < 10 |  | 
23 | COc1cc2nccc(Oc3cc(C)c(NC(=O)OCC4CCCCC4)cc3C)c2cc1OC [Example 284, Cyclohexylmethyl N-{4-[(6,7-dimethoxy-4-quinolyl)oxy]-2,5-dimethylphenyl}carbamate] | 269 | < 10 |  | 
24 | COc1cc2nccc(Oc3ccc(NC(=O)OCC4CCCCC4)c(C)c3C)c2cc1OC [Example 285, Cyclohexylmethyl N-{4-[(6,7-dimethoxy-4-quinolyl)oxy]-2,3-dimethylphenyl}carbamate] | 85 | < 10 |  | 
25 | COc1cc2nccc(Oc3ccc(NC(=O)OC4CCCCCC4)cc3)c2cc1OC [Example 286, Cycloheptyl N-{4-[(6,7-dimethoxy-4-quinolyl)oxy]phenyl}carbamate] | 54 | < 10 |  | 
26 | COc1cc2nccc(Oc3ccc(NC(=O)OC4CCCCCC4)c(C)c3C)c2cc1OC [Example 288, Cycloheptyl N-{4-[(6,7-dimethoxy-4-quinolyl)oxy]-2,3-dimethylphenyl}carbamate] | 162 | < 10 |  | 
27 | COc1cc2nccc(Oc3cc(C)c(NC(=O)Oc4ccccc4C)cc3C)c2cc1OC [Example 289, 2-Methylphenyl N-{4-[(6,7-dimethoxy-4-quinolyl)oxy]-2,5-dimethylphenyl}carbamate] | 328 | < 10 |  | 
28 | COc1cccc(OC(=O)Nc2cc(C)c(Oc3ccnc4cc(OC)c(OC)cc34)cc2C)c1 [Example 290, 3-Methoxyphenyl N-{4-[(6,7-dimethoxy-4-quinolyl)oxy]-2,5-dimethylphenyl}carbamate] | 281 | 47 |  | 
29 | COc1cccc(OC(=O)Nc2ccc(Oc3ccnc4cc(OC)c(OC)cc34)c(C)c2C)c1 [Example 291, 3-Methoxyphenyl N-{4-[(6,7-dimethoxy-4-quinolyl)oxy]-2,3-dimethylphenyl}carbamate] | 124 | 26 |  | 
30 | COc1cc2nccc(Oc3cc(C)c(NC(=O)OC4CCc5ccccc5C4)cc3C)c2cc1OC (stereo not shown) [Example 292, 1,2,3,4-Tetrahydro-2-naphthalenyl N-{4-[(6,7-dimethoxy-4-quinolyl)oxy]-2,5-dimethylphenyl}carbamate] | 262 | 14 |  | 
31 | COc1cc2nccc(Oc3ccc(NC(=O)OC4CCc5ccccc5C4)c(C)c3C)c2cc1OC (stereo not shown) [Example 293, 1,2,3,4-Tetrahydro-2-naphthalenyl N-{4-[(6,7-dimethoxy-4-quinolyl)oxy]-2,3-dimethylphenyl}carbamate] | 145 | < 10 |  | 
32 | COc1cc2nccc(Oc3ccc(NC(=O)Oc4ccc(-c5ccccc5)cc4)cc3)c2cc1OC [Example 294, 4-Phenylphenyl N-{4-[(6,7-dimethoxy-4-quinolyl)oxy]phenyl}carbamate] | 109 | 15 |  | 
33 | COc1cc2nccc(Oc3cc(C)c(NC(=O)Oc4ccc(-c5ccccc5)cc4)cc3C)c2cc1OC [Example 295, 4-Phenylphenyl N-{4-[(6,7-dimethoxy-4-quinolyl)oxy]-2,5-dimethylphenyl}carbamate] | 178 | > 100 |  | 45
34 | COc1cc2nccc(Oc3ccc(NC(=O)Oc4ccc(-c5ccccc5)cc4)c(C)c3C)c2cc1OC [Example 296, 4-Phenylphenyl N-{4-[(6,7-dimethoxy-4-quinolyl)oxy]-2,3-dimethylphenyl}carbamate] | 109 | 61 |  | 
